Data: ChEMBL document CHEMBL5442219

What was measured:
Conditions in all cases: Compound concentration 10 µM
[1] = biological target: T1, Alpha-2B adrenergic receptor (Homo sapiens) (UniProt P18089)
T1 sequence (whole entry): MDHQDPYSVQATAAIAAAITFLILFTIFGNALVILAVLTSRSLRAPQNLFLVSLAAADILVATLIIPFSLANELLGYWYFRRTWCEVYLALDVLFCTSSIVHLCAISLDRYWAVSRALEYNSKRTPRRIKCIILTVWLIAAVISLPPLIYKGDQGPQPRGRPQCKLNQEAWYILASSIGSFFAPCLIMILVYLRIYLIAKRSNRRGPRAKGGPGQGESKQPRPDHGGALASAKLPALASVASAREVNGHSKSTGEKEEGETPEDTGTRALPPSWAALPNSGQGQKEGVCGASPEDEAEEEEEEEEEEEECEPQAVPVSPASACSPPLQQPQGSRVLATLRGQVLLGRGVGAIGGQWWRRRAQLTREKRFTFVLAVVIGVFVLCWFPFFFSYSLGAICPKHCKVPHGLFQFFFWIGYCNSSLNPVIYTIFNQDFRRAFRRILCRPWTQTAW

[2] = biological target: T2, Alpha-2C adrenergic receptor (Homo sapiens) (UniProt P18825)
T2 sequence (whole entry): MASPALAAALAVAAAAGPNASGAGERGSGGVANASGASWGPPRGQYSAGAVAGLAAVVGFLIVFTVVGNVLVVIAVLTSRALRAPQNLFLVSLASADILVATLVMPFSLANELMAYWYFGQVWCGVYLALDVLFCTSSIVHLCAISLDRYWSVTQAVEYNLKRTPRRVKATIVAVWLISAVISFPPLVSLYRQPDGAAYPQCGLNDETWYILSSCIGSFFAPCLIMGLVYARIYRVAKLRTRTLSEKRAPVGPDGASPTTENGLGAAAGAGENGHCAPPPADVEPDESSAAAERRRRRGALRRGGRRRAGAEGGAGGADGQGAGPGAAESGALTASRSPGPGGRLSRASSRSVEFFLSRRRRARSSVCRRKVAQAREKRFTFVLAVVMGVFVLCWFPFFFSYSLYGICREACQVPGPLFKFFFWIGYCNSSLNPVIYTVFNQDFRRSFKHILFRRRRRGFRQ

[3] = biological target: Beta-2 adrenergic receptor (Homo sapiens) (UniProt P07550)
Sequence of Beta-2 adrenergic receptor (Homo sapiens) (P07550 whole entry, looked up): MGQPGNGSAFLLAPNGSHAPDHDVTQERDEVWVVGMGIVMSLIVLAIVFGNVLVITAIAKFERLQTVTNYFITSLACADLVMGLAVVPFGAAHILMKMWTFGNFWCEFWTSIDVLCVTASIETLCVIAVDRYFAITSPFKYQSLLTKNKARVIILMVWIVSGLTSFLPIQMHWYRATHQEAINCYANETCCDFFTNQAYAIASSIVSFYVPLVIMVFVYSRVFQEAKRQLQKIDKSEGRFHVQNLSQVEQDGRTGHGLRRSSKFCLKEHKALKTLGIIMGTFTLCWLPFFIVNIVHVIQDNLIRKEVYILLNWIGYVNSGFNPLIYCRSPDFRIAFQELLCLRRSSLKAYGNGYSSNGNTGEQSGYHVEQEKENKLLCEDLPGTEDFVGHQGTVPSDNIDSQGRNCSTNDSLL

[4] = biological target: D(1A) dopamine receptor (Homo sapiens) (UniProt P21728)
Sequence of D(1A) dopamine receptor (Homo sapiens) (P21728 whole entry): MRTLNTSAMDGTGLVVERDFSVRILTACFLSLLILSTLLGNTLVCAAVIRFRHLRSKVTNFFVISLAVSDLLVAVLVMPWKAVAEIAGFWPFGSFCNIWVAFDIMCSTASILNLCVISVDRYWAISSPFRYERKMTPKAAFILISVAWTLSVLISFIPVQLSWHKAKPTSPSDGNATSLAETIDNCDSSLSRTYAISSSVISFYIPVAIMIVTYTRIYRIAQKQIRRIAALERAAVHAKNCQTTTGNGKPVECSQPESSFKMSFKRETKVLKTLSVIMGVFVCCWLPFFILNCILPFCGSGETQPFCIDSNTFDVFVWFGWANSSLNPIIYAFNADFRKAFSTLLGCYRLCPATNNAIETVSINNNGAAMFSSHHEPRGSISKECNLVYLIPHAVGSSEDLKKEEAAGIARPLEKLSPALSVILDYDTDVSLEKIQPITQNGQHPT

[5] = biological target: D(2) dopamine receptor (Homo sapiens) (UniProt P14416)
[6] = biological target: Histamine H3 receptor (Homo sapiens) (UniProt Q9Y5N1)
[7] = biological target: Histamine H4 receptor (Homo sapiens) (UniProt Q9H3N8)
Sequence of Histamine H4 receptor (Homo sapiens) (Q9H3N8 whole entry): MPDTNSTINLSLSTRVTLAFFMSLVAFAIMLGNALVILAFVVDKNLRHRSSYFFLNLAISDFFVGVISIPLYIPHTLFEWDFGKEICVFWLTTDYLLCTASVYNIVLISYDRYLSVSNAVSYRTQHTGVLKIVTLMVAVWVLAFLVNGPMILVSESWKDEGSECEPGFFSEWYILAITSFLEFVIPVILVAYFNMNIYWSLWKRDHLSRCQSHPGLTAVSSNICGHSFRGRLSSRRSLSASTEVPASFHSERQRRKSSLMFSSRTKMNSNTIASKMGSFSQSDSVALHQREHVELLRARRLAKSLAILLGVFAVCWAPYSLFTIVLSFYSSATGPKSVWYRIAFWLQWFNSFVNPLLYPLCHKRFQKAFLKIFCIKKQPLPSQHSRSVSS

[8] = biological target: T3, 5-hydroxytryptamine receptor 1A (Homo sapiens) (UniProt P08908)
T3 sequence (whole entry): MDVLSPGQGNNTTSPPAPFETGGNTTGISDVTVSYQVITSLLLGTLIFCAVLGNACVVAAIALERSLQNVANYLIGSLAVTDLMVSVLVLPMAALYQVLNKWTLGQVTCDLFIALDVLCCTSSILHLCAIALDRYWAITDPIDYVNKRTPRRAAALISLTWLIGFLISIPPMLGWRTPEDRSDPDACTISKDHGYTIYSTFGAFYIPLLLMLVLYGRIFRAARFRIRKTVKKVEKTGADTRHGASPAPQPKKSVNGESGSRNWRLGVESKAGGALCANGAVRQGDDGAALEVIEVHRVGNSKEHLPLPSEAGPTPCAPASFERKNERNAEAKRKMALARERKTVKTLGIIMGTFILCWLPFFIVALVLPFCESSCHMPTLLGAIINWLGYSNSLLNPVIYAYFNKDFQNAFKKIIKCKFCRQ

[9] = biological target: 5-hydroxytryptamine receptor 1E (Homo sapiens) (UniProt P28566)
[10] = biological target: 5-hydroxytryptamine receptor 2A (Homo sapiens) (UniProt P28223)
Sequence of 5-hydroxytryptamine receptor 2A (Homo sapiens) (P28223 whole entry): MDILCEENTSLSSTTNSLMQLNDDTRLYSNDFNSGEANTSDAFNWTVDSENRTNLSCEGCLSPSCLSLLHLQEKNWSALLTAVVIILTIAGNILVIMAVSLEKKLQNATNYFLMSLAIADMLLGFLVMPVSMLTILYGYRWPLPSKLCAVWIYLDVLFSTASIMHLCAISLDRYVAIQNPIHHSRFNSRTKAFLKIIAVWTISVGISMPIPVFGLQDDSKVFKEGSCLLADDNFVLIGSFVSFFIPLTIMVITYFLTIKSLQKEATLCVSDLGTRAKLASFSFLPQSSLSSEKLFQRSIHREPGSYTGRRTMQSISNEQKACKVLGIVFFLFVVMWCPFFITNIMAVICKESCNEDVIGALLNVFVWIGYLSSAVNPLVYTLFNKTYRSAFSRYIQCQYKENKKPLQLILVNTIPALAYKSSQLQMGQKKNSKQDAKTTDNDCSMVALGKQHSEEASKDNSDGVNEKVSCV

[11] = biological target: 5-hydroxytryptamine receptor 2B (Homo sapiens) (UniProt P41595)
Sequence of 5-hydroxytryptamine receptor 2B (Homo sapiens) (P41595 whole entry): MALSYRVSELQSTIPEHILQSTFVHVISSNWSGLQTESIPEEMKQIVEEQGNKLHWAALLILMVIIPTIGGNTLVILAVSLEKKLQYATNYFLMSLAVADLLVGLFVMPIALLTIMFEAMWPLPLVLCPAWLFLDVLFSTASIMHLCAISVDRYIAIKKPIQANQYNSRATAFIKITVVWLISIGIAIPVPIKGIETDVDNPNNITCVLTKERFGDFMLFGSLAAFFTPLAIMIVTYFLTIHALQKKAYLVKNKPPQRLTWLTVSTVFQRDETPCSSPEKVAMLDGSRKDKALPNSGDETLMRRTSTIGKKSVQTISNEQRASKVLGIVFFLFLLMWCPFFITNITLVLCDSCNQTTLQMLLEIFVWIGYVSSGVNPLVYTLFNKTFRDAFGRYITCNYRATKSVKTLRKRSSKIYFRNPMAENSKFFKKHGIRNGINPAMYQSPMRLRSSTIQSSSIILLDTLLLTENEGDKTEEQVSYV

[12] = biological target: 5-hydroxytryptamine receptor 5A (Homo sapiens) (UniProt P47898)
Sequence of 5-hydroxytryptamine receptor 5A (Homo sapiens) (P47898 whole entry): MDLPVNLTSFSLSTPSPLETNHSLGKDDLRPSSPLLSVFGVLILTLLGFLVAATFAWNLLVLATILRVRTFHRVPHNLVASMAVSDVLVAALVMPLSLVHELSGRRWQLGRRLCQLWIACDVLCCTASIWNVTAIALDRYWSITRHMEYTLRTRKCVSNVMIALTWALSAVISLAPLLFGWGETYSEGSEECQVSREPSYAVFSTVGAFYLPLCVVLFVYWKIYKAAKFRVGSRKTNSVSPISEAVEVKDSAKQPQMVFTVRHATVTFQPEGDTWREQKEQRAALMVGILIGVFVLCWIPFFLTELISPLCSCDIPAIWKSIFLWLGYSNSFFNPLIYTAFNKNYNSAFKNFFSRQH

[13] = biological target: 5-hydroxytryptamine receptor 6 (Homo sapiens) (UniProt P50406)
[14] = biological target: Delta-type opioid receptor (Homo sapiens) (UniProt P41143)
[15] = biological target: Sigma non-opioid intracellular receptor 1 (Homo sapiens) (UniProt Q99720)
Sequence of Sigma non-opioid intracellular receptor 1 (Homo sapiens) (Q99720 whole entry): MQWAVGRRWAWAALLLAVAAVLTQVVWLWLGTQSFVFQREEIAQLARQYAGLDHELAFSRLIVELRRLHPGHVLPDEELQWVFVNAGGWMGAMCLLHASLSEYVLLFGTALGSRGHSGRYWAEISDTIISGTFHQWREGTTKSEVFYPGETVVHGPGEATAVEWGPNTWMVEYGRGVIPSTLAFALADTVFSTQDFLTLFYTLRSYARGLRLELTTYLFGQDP

[16] = biological target: Sodium-dependent noradrenaline transporter (Homo sapiens) (UniProt P23975)
[17] = biological target: Sodium-dependent dopamine transporter (Homo sapiens) (UniProt Q01959)
Sequence of Sodium-dependent dopamine transporter (Homo sapiens) (Q01959 whole entry): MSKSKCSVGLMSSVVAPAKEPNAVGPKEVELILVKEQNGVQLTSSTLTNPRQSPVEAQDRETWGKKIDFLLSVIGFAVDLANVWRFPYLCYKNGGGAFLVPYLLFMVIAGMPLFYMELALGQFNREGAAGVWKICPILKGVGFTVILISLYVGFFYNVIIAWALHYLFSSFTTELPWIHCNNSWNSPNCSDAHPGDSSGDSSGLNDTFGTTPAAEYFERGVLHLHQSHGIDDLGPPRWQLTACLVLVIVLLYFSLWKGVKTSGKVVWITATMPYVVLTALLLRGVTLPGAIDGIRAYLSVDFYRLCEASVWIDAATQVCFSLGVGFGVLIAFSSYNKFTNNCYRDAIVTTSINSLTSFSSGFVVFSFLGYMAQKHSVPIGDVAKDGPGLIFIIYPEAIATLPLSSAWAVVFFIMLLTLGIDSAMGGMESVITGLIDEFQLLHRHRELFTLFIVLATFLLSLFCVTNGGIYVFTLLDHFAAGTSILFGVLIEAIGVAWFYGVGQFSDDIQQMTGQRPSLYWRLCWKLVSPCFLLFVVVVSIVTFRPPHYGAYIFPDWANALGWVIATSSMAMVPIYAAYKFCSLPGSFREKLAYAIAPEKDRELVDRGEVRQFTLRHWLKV

[18] = biological target: Sigma intracellular receptor 2 (Homo sapiens) (UniProt Q5BJF2)
Sequence of Sigma intracellular receptor 2 (Homo sapiens) (Q5BJF2 whole entry): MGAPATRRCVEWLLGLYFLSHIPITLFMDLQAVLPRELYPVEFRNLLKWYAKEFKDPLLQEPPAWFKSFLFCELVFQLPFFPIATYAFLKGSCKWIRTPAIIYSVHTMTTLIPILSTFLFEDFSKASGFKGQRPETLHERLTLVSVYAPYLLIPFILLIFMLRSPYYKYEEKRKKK

[19] = biological target: Translocator protein (Homo sapiens) (UniProt P30536)
Sequence of Translocator protein (Homo sapiens) (P30536 whole entry): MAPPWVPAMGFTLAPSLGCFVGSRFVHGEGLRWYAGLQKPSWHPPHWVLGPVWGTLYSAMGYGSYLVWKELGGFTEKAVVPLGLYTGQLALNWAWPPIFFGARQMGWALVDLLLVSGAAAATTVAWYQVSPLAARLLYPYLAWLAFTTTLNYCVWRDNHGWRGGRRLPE

[20] = biological target: Beta-1 adrenergic receptor (Homo sapiens) (UniProt P08588)
Sequence of Beta-1 adrenergic receptor (Homo sapiens) (P08588 whole entry, looked up): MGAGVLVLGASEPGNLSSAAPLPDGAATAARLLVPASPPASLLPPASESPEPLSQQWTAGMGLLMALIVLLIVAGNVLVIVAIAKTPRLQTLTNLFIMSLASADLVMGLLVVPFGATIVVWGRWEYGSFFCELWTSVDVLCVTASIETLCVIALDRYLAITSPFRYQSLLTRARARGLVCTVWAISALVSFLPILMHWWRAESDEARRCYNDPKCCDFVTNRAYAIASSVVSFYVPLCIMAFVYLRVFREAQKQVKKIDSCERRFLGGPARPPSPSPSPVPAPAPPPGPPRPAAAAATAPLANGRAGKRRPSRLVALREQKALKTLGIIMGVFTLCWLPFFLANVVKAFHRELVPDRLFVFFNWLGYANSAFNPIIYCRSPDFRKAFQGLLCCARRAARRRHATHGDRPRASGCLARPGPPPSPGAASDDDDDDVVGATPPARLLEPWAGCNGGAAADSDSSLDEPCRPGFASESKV

[21] = biological target: T4, D(4) dopamine receptor (Homo sapiens) (UniProt P21917)
T4 sequence (whole entry): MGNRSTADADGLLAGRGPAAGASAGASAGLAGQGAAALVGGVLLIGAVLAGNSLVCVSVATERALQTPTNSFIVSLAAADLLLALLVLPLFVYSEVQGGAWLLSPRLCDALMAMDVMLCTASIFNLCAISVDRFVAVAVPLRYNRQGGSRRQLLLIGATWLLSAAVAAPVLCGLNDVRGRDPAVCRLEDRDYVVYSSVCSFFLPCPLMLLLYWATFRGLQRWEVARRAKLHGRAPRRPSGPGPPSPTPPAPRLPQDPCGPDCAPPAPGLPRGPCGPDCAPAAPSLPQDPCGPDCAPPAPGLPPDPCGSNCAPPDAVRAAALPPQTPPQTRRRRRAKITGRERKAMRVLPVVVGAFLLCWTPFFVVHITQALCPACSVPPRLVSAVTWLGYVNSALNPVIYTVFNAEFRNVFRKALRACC

[22] = biological target: Muscarinic acetylcholine receptor M3 (Homo sapiens) (UniProt P20309)
Sequence of Muscarinic acetylcholine receptor M3 (Homo sapiens) (P20309 whole entry, looked up): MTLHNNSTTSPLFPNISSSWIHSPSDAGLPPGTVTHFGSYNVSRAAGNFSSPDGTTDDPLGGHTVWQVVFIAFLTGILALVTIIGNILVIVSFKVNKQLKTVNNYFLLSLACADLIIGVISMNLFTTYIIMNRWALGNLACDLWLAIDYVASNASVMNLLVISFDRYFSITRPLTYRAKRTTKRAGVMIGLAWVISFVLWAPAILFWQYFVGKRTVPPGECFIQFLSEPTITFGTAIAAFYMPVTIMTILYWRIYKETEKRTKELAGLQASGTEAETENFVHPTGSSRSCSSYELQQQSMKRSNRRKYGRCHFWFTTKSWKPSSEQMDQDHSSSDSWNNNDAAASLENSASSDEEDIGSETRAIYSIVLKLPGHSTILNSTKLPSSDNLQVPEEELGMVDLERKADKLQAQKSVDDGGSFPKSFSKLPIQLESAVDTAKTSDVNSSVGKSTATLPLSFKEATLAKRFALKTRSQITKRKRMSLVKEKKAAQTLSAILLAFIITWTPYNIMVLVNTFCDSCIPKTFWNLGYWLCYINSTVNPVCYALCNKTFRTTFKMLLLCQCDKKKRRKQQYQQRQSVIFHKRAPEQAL

SMILES | inhibition [1] [%] | inhibition [2] [%] | inhibition [3] [%] | inhibition [4] [%] | inhibition [5] [%] | inhibition [6] [%] | inhibition [7] [%] | inhibition [8] [%] | inhibition [9] [%] | inhibition [10] [%] | inhibition [11] [%] | inhibition [12] [%] | inhibition [13] [%] | inhibition [14] [%] | inhibition [15] [%] | inhibition [16] [%] | inhibition [17] [%] | inhibition [18] [%] | inhibition [19] [%] | inhibition [20] [%] | further results
COc1ccnc(N2CCC3(CCCN(Cc4c[nH]c5ccccc45)C3=O)CC2)n1 | -7.28 | 4.51 | 11.9 | -4.13 | 7 | 0.7 | -2.57 | 72.4 | -3.29 | 7.53 | 23.6 | -9.26 | 19.4 | 41.8 | 16 | 16.6 | 44.7 | 34.7 | 75.8 | – | –
COC1CCN(c2cccc(-c3cc(NC(C)=O)nc(-n4nc(C)cc4C)n3)n2)CC1 | -0.88 | 26.3 | 2.28 | -3.87 | 12.8 | 1.55 | 5.32 | 23.3 | 15.2 | 1.6 | 30.3 | -1.72 | 40.8 | -6 | 80.2 | – | 49.2 | 36.3 | 70.3 | 41.4 | inhibition [21]: -2.89%
Cc1nnn(-c2ccc(-c3ccc(C4(C(=O)O)CC4)cc3)cc2)c1NC(=O)O[C@H](C)c1ccccc1 | 4.78 | 2.71 | 6.66 | -4.64 | 25.4 | -3.65 | -4.07 | 2.96 | 1.32 | 2.49 | -0.33 | 15.6 | 37.4 | 7.05 | 20.9 | 2.8 | 35 | -0.49 | 3.3 | -7.78 | inhibition [22]: -2.63%
Cc1csc(NC(=O)c2cc(F)cc(Oc3cncnc3)c2)n1 | 6.73 | 6.42 | 8.79 | -5.62 | 21 | 2.1 | 0.79 | 20.4 | -3.74 | 1.92 | 26.7 | -6.54 | 7.85 | -0.43 | 37.2 | 10.9 | 56.1 | 41.8 | 37.4 | -2.16 | inhibition [22]: -2.7%; inhibition [21]: 23.6%
Cc1c(C2=CCN(C(=O)N(C)C(C)C)CC2)nnn1-c1cccnc1F | 21.3 | 9.65 | -6.84 | – | 11.9 | -3.59 | 9.6 | 17 | 20.2 | 85.9 | 6.62 | 7.43 | 1.27 | – | 48.4 | – | – | 64.4 | -1.56 | -5.97 | inhibition [22]: 1.95%; inhibition [21]: 26.9%
